Patent US12492173B2, “Herbicidal substituted N-tetrazolyl aryl carboxamides” (Bayer Aktiengesellschaft, priority 2019, dated 2025)

What was measured:
Type in all cases: in vivo
Echinochloa crus-galli [1] = assay: Pre-emergence herbicidal action, ECHCG; design: key to Herbicidal action against ECHCG: % activity: 100 = plants have died, 0 = like control plants; settings: for Herbicidal action against ECHCG: comparative experiment; for herbicidal activity ECHCG: dosage 320 g/ha, scored visually after 3 weeks vs untreated controls (100% = plants have died)
In short: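 Greenhouse pre-emergence test: formulated compound (WP or EC) applied in water to the soil covering sown seeds, 600–800 l/ha, 0.2% wetting agent. Scored visually in percent at 3 weeks versus untreated plants.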

Lolium multiflorum = assay: Pre-emergence herbicidal action, LOLMU; settings: dosage 320 g/ha, scored visually after 3 weeks vs untreated controls (100% = plants have died)
Description: (§1) 1. Pre-Emergence Herbicidal Action Against Harmful Plants Seeds of monocotyledonous and dicotyledonous weed plants and crop plants are laid out in sandy loam soil in wood-fiber pots and covered with soil. The compounds of the invention, formulated in the form of wettable powders (WP) or as emulsion concentrates (EC), are then applied to the surface of the covering soil in the form of an aqueous suspension or emulsion at a water application rate equating to 600 to 800 l/ha, with addition of 0.2% wetting agent. After the treatment, the pots are placed in a greenhouse and kept under good growth conditions for the trial plants. The damage to the test plants is scored visually after a test period of 3 weeks by comparison with untreated controls (herbicidal activity in percent (%): 100% activity=the plants have died, 0% activity=like control plants). […] The tables below illustrate, in an exemplary manner, the […] herbicidal action of the compounds according to the invention, the herbicidal activity being stated in percent. [table] In the experiments that follow, herbicidal action of numerous inventive compounds and the known compounds that are structurally closest from D1 (WO 2012/028579 A1) and D2 (WO 2018/202535 A1) were compared under the above-specified conditions by the pre-emergence and post-emergence method. The example numbers given in the tables relate to the compounds disclosed in the respective documents. In addition to the compounds disclosed in D1 and D2, the following compounds V-1 to V-14 that are encompassed by D1 or D2 but are not compounds specified therein were used in the comparative experiments: • V-1: 2-(methylsulfanyl)-3-(methylsulfinyl)-N-(1-methyl-1H-tetrazol-5-yl)-4-(trifluoromethyl)benzamide • V-2: 2-(methylsulfanyl)-3-(methylsulfonyl)-N-(1-methyl-1H-tetrazol-5-yl)-4-(trifluoromethyl)benzamide • V-3: 2,3-bis(ethylsulfanyl)-N-(1-methyl-1H-tetrazol-5-yl)-4-(trifluoromethyl)benzamide • V-4: 2-chloro-3-(ethylsulfanyl)-N-(1-methyl-1H-tetrazol-5-yl)-4-(trifluoromethyl)benzamide • V-5: 2-chloro-4-iodo-3-(methylsulfanyl)-N-(1-methyl-1H-tetrazol-5-yl)benzamide • V-6: 2-chloro-4-iodo-3-(methylsulfinyl)-N-(1-methyl-1H-tetrazol-5-yl)benzamide • V-7: 2-chloro-4-iodo-3-(methylsulfonyl)-N-(1-methyl-1H-tetrazol-5-yl)benzamide • V-8: 2-bromo-3-(methylsulfanyl)-N-(1-methyl-1H-tetrazol-5-yl)-4-(trifluoromethyl)benzamide • V-9: 2-bromo-3-(methylsulfinyl)-N-(1-methyl-1H-tetrazol-5-yl)-4-(trifluoromethyl)benzamide • V-10: 2-bromo-3-(methylsulfonyl)-N-(1-methyl-1H-tetrazol-5-yl)-4-(trifluoromethyl)benzamide • V-11: 2-bromo-3-(ethylsulfanyl)-N-(1-methyl-1H-tetrazol-5-yl)-4-(trifluoromethyl)benzamide • V-12: 2-bromo-3-(ethylsulfinyl)-N-(1-methyl-1H-tetrazol-5-yl)-4-(trifluoromethyl)benzamide • V-13: 2-bromo-3-(ethylsulfonyl)-N-(1-methyl-1-1H-tetrazol-5-yl)-4-(trifluoromethyl)benzamide • V-14: 2-cyclopropyl-3-(ethylsulfanyl)-N-(1-methyl-1H-tetrazol-5-yl)-4-(trifluoromethyl)benzamide Herbicidal Pre-Emergence Action: […]

Echinochloa crus-galli [2] = assay: Post-emergence herbicidal action, ECHCG; design: key: % herbicidal action vs untreated; 100 = plants died, 0 = like control; settings: for Herbicidal action against ECHCG: comparative experiment
In short: (§2)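 Percent herbicidal effect was rated visually about 3 weeks after treatment, relative to untreated plants (0% = like control, 100% = dead). Compounds, formulated as WP or EC, went on as aqueous spray (600–800 l/ha, 0.2% wetting agent) to one-leaf-stage plants 2–3 weeks post-sowing in sandy loam.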

Avena fatua = assay: Post-emergence herbicidal action, AVEFA; design: key: % herbicidal action vs untreated; 100 = plants died, 0 = like control; settings: for Herbicidal action against AVEFA: comparative experiment
In short: as §2

Cyperus esculentus = assay: Post-emergence herbicidal action, CYPES; design: key: % herbicidal action vs untreated; 100 = plants died, 0 = like control
In short: as §2

Hordeum murinum = assay: Pre-emergence herbicidal action, HORMU; settings: dosage 320 g/ha, scored visually after 3 weeks vs untreated controls (100% = plants have died)
Description: as §1

[3] = post-emergence, 20 g of a.i./ha

Structure (SMILES) | herbicidal activity ECHCG (Echinochloa crus-galli [1]) [%] | herbicidal activity LOLMU (Lolium multiflorum) [%] | herbicidal action ECHCG (Echinochloa crus-galli [2]; post-emergence, dosage 80 g/ha) [%] | herbicidal action AVEFA (Avena fatua; post-emergence, dosage 80 g/ha) [%] | herbicidal action CYPES (Cyperus esculentus; post-emergence, dosage 80 g/ha) [%] | herbicidal action ECHCG (Echinochloa crus-galli [2]; Dosage 80 g/ha) | also measured
CC[S+]([O-])Cc1c(C(F)(F)F)ccc(C(=O)Nc2nnnn2C)c1Br (racemic) [Example 1-384] | 100 | 100 | 100 | 100 | 90 | – | Herbicidal action against ECHCG (Echinochloa crus-galli [1]; 80 g of a.i./ha): 100; Herbicidal action against ECHCG (Echinochloa crus-galli [2]; [3]): 90
CSCc1c(C(F)(F)F)ccc(C(=O)Nc2nnnn2C)c1C [Example 1-83] | 100 | 100 | 90 | 90 | 90 | – | –
CSc1c(C(=O)Nc2nnnn2C)ccc(C(F)F)c1C[S+](C)[O-] (stereo not drawn) [Example 1-171] | 100 | – | – | – | – | 100 | herbicidal activity HORMU (Hordeum murinum): 80%
CCSCc1c(C(F)(F)F)ccc(C(=O)Nc2nnnn2C)c1SCC [Example 1-182] | 100 | 90 | – | – | – | 90 | Herbicidal action against ECHCG (Echinochloa crus-galli [1]; 20 g of a.i./ha): 80; Herbicidal action against ECHCG (Echinochloa crus-galli [2]; post-emergence, 5 g of a.i./ha): 80; herbicidal action AVEFA (Avena fatua; Dosage 80 g/ha): 80
CCSCc1c(C(F)(F)F)ccc(C(=O)Nc2nnnn2C)c1Cl [Example 1-299] | 100 | 100 | 90 | 90 | 80 | – | Herbicidal action against AVEFA (Avena fatua; post-emergence, 5 g of a.i./ha): 80
Cn1nnnc1NC(=O)c1ccc(C(F)F)c(CS(C)(=O)=O)c1Cl [Example 1-322] | 100 | 100 | 100 | 80 | – | – | –
CCSCc1c(C(F)F)ccc(C(=O)Nc2nnnn2C)c1Cl [Example 1-323] | 100 | 100 | 100 | 100 | 80 | – | Herbicidal action against AVEFA (Avena fatua; post-emergence, 5 g of a.i./ha): 70
CCS(=O)(=O)Cc1c(C(F)F)ccc(C(=O)Nc2nnnn2C)c1Cl [Example 1-325] | 100 | 100 | – | – | – | 100 | herbicidal action AVEFA (Avena fatua; Dosage 80 g/ha): 90; herbicidal action CYPES (Cyperus esculentus; Dosage 80 g/ha): 80
CCSCc1c(C(F)(F)F)ccc(C(=O)Nc2nnnn2C)c1Br [Example 1-383] | 100 | 100 | 90 | 90 | – | – | Herbicidal action against ECHCG (Echinochloa crus-galli [1]; 80 g of a.i./ha): 100; Herbicidal action against AVEFA (Avena fatua; [3]): 90
CCS(=O)(=O)Cc1c(C(F)(F)F)ccc(C(=O)Nc2nnnn2C)c1Br [Example 1-385] | 100 | 100 | 90 | 100 | 80 | – | Herbicidal action against ECHCG (Echinochloa crus-galli [1]; 80 g of a.i./ha): 100; Herbicidal action against ECHCG (Echinochloa crus-galli [2]; [3]): 90; Herbicidal action against AVEFA (Avena fatua; [3]): 80; Herbicidal action against CYPES (Cyperus esculentus; comparative experiment, post-emergence, 20 g of a.i./ha): 60
CCn1nnnc1NC(=O)c1ccc(C(F)F)c(CSC)c1SC [Example 2-170] | 100 | – | – | – | – | 100 | herbicidal activity HORMU (Hordeum murinum): 80%
CCn1nnnc1NC(=O)c1ccc(C(F)(F)F)c(CSC)c1Cl [Example 2-296] | 100 | 100 | 90 | 100 | 80 | – | –
CCn1nnnc1NC(=O)c1ccc(C(F)(F)F)c(C[S+](C)[O-])c1Cl (stereo not drawn) [Example 2-297] | 100 | 90 | 100 | 100 | – | – | –
